Measured values as given in ChEMBL document CHEMBL5576135, “Discovery of Indolo[3,2-c]isoquinoline Derivatives as Novel Top1/2 Dual Inhibitors with Orally Efficacious Antitumor Activity and Low Toxicity” (J Med Chem, 2024).
Activity calls are given as the source filed them. The calls are words filed in the database; no cut-off is given here.

Assays:
[1] = MRT (0 to t) in ICR mouse at 10 mg/kg,po measured upto 24 hrs by LC-MS/MS analysis; assay type: ADME, organism-based; details: in vivo
[2] = biological target: T1, DNA topoisomerase 1 (Homo sapiens) (UniProt P11387); assay: Inhibition of Topoisomerase I (unknown origin) using pBR322 DNA as substrate at 10 uM incubated for 15 mins by EtBr staining based agarose gel electrophoresis method
T1 sequence (whole entry): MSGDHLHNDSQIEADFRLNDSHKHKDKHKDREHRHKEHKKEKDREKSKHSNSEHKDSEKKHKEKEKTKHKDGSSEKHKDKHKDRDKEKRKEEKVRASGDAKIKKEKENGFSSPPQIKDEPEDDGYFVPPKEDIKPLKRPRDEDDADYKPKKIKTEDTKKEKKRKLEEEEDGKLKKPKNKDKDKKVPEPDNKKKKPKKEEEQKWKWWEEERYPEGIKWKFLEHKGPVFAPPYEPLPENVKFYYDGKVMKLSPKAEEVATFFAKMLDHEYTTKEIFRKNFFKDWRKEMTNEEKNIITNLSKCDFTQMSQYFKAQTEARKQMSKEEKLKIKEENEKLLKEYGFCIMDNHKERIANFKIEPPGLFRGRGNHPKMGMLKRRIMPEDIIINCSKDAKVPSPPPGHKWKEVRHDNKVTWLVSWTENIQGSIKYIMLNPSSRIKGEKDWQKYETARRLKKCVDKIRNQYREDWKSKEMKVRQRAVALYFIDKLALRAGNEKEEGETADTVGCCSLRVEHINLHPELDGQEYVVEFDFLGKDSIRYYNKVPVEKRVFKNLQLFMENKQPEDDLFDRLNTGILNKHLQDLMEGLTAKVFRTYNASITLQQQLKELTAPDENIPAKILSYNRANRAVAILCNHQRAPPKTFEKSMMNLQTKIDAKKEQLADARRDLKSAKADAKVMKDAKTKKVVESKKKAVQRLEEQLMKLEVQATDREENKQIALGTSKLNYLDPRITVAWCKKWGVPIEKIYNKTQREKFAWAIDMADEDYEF

[3] = Toxicity in Kunming mouse assessed as morphological change in liver at 100 mg/kg,po administration for 2 weeks; assay type: organism-based; details: in vivo, 336 h
[4] = Toxicity in Kunming mouse assessed as change in body weight at 100 mg/kg,po administration for 2 weeks; assay type: organism-based; details: in vivo, 336 h
NCI-H446 [5] = assay: Inhibition of colony formation in human NCI-H446 cells at 1 uM incubated for 24 hrs by crystal violet staining based analysis relative to control; assay type: functional
NCI-H446 [6] = assay: Antiproliferative activity against human NCI-H446 cells assessed as inhibition of cell growth incubated for 96 hrs by MTT based ELISA; assay type: functional; details: NCI-H446, 96 h
NCI-H1975 = assay: Antiproliferative activity against human NCI-H1975 cells assessed as inhibition of cell growth incubated for 96 hrs by MTT based ELISA; assay type: functional; details: NCI-H1975, 96 h
A549 = assay: Antiproliferative activity against human A549 cells assessed as inhibition of cell growth incubated for 96 hrs by MTT based ELISA; assay type: functional; details: A549, 96 h
[7] = Antiproliferative activity against human BEAS-2B cells assessed as inhibition of cell growth incubated for 96 hrs by MTT based ELISA; assay type: toxicity
NCI-H446 [8] = assay: Induction of DNA damage in human NCI-H446 cells assessed as increase in intracellular gamma-H2AX level at 2 to 8 uM incubated for 48 hrs by Western blotting analysis; assay type: functional, cell-based; details: dose 2-8 µM
[9] = Toxicity in Kunming mouse assessed as change in organ coefficient of liver at 100 mg/kg,po administration for 2 weeks; assay type: organism-based; details: in vivo, 336 h
NCI-H446 [10] = assay: Induction of cell cycle arrest in human NCI-H446 cells assessed as accumulation of cells at G2/M phase at 1 to 2 uM incubated for 48 hrs by propidium iodide/RNase A staining based flow cytometry; assay type: functional; details: dose 1-2 µM
[11] = biological target: T1, DNA topoisomerase 1 (Homo sapiens); assay: Inhibition of Topoisomerase I (unknown origin) using pBR322 DNA as substrate at 50 uM incubated for 15 mins by EtBr staining based agarose gel electrophoresis method
NCI-H446 [12] = assay: Induction of cell cycle arrest in human NCI-H446 cells assessed as accumulation of cells at G2/M phase at 2 uM incubated for 48 hrs by propidium iodide/RNase A staining based flow cytometry relative to control; assay type: functional
[13] = biological target: T1, DNA topoisomerase 1 (Homo sapiens); assay: Inhibition of Topoisomerase I (unknown origin) using pBR322 DNA as substrate at 200 uM incubated for 15 mins by EtBr staining based agarose gel electrophoresis method relative to control
[14] = AUC (0 to infinity) in ICR mouse at 10 mg/kg,po measured upto 24 hrs by LC-MS/MS analysis; assay type: ADME, organism-based; details: in vivo
[15] = AUC (0 to t) in ICR mouse at 10 mg/kg,po measured upto 24 hrs by LC-MS/MS analysis; assay type: ADME, organism-based; details: in vivo
Cell membrane = assay: Induction of mitochondrial membrane potential loss in human NCI-H446 cells at 8 uM incubated for 24 hrs by JC-1 staining based flow cytometry; assay type: cell membranes
[16] = Toxicity in Kunming mouse assessed as change in serum AST level at 100 mg/kg,po administration for 2 weeks; assay type: organism-based; details: in vivo, 336 h
[17] = MRT (0 to infinity) in ICR mouse at 10 mg/kg,po measured upto 24 hrs by LC-MS/MS analysis; assay type: ADME, organism-based; details: in vivo
[18] = Toxicity in Kunming mouse assessed as change in serum blood urea nitrogen level at 100 mg/kg,po administration for 2 weeks; assay type: organism-based; details: in vivo, 336 h
[19] = biological target: DNA topoisomerase 2-alpha (Homo sapiens) (UniProt P11388); assay: Inhibition of Topoisomerase 2 (unknown origin) using pBR322 DNA as substrate at 10 uM incubated for 15 mins by EtBr staining based agarose gel electrophoresis method
PC-9 = assay: Antiproliferative activity against human PC-9 cells assessed as inhibition of cell growth incubated for 96 hrs by MTT based ELISA; assay type: functional; details: PC-9, 96 h
NCI-H446 [20] = assay: Antitumor activity against human NCI-H446 cells xenografted with BALB/c mouse assessed as tumor growth inhibition by measuring T/C ratio at 100 mg/kg,po administrated once daily for 21 days; assay type: functional; details: time 21 day
[21] = biological target: T1, DNA topoisomerase 1 (Homo sapiens); assay: Inhibition of Topoisomerase I (unknown origin) using pBR322 DNA as substrate at 1 uM incubated for 15 mins by EtBr staining based agarose gel electrophoresis method
HCT-116 [22] = assay: Antitumor activity against human HCT-116 cells xenografted with BALB/c mouse assessed as tumor growth inhibition at 100 mg/kg,po administrated once daily for 21 days relative to control; assay type: functional; details: HCT-116, 504 h, time 21 day, read-out: TGI
HCT-116 [23] = assay: Antitumor activity against human HCT-116 cells xenografted with BALB/c mouse assessed as tumor growth inhibition by measuring T/C ratio at 50 mg/kg,po administrated once daily for 21 days; assay type: functional; details: time 21 day
NCI-H446 [24] = assay: Antitumor activity against human NCI-H446 cells xenografted with BALB/c mouse assessed as tumor growth inhibition by measuring T/C ratio at 50 mg/kg,po administrated once daily for 21 days; assay type: functional; details: time 21 day
HCT-116 [25] = assay: Antitumor activity against human HCT-116 cells xenografted with BALB/c mouse assessed as tumor growth inhibition at 50 mg/kg,po administrated once daily for 21 days relative to control; assay type: functional; details: HCT-116, 504 h, time 21 day, read-out: TGI

DNA topoisomerase 2-alpha (Homo sapiens), sequence (P11388 whole entry): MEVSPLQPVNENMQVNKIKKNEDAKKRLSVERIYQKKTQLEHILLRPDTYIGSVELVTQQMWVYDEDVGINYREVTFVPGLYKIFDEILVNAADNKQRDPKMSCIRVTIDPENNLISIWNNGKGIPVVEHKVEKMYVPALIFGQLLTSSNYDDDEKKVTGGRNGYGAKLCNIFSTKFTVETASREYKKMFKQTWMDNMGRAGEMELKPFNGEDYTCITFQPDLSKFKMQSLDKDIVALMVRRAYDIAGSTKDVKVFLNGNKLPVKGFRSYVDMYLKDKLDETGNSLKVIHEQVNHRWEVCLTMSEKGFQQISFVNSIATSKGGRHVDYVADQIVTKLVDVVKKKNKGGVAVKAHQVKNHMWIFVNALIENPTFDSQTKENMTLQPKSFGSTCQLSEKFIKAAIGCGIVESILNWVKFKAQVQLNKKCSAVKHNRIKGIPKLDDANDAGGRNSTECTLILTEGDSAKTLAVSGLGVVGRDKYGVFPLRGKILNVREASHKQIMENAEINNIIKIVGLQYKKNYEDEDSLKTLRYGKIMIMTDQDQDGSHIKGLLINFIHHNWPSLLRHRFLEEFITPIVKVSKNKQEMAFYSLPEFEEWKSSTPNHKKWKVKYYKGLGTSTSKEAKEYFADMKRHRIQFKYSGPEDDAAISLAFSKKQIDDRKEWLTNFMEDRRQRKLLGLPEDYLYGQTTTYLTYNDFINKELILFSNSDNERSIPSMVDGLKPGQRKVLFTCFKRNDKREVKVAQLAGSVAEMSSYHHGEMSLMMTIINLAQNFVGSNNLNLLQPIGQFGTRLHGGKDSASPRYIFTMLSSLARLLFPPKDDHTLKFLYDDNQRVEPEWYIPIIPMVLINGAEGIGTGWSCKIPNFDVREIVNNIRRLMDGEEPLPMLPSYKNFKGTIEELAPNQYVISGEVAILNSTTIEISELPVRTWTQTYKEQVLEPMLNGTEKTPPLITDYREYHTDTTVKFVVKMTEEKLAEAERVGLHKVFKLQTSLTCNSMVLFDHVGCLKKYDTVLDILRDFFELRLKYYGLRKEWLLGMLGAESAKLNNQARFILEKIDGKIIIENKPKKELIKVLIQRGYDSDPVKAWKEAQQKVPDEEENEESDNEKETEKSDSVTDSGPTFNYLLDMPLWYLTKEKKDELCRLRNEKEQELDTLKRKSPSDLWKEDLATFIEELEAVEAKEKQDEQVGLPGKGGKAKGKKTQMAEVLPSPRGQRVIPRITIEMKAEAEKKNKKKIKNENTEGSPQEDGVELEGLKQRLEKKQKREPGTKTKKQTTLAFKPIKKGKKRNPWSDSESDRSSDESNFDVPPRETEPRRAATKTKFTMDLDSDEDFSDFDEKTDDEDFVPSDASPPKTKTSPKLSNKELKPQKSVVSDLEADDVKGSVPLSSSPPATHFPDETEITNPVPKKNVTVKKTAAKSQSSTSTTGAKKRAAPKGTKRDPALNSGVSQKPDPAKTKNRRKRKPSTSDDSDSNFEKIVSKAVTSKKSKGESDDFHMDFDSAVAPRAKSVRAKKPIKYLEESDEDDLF

Compound	MRT last at 24 h [1]	inhibition [2]	Activity [3]	Activity [4]	inhibition at 1 µM (NCI-H446 [5])	IC50 (NCI-H446 [6])	IC50 (NCI-H1975)	IC50 (A549)	IC50 at 96 h [7]	Activity (NCI-H446 [8])	Activity [9]	Activity (NCI-H446 [10])	inhibition [11]	Activity (NCI-H446 [12])	inhibition [13]	AUC(0-inf) [14]	AUC(0-t) at 24 h [15]	Activity (Cell membrane)	Activity [16]	MRT inf [17]	further results
COc1ccc2c(c1)c1ncc3ccccc3c1n2CCCC(=O)NO	1.35 h	Active	Non-Toxic	Non-Toxic	> 90%	120 nM	960 nM	2510 nM	> 10000 nM	Active	Non-Toxic	Active	Active	60.3%	> 95%	267 ng·h/mL	244 ng·h/mL	Active	Non-Toxic	1.72 h	Activity [18]: Non-Toxic; inhibition [19]: Active; IC50 (PC-9): 1260 nM
CN(C)CCCn1c2cc3c(cc2c2ncc4ccccc4c21)OCO3	5 h	Active	Non-Toxic	Non-Toxic	> 90%	90 nM	740 nM	1100 nM	9570 nM	Active	Non-Toxic	Active	Active	61.1%	> 95%	2040 ng·h/mL	2040 ng·h/mL	Active	Non-Toxic	5 h	T/C (NCI-H446 [20]): 35.2%; inhibition [21]: Active; inhibition in vivo at 100 mg/kg (HCT-116 [22]): 77.4%; T/C (HCT-116 [23]): 55%; T/C (NCI-H446 [24]): 52.3%; Activity [18]: Non-Toxic; inhibition [19]: Active; inhibition in vivo at 50 mg/kg (HCT-116 [25]): 40.8%; IC50 (PC-9): 760 nM
